Data: a melting point compilation (Tetko et al.; mined from patent text by program, amines drawn as free bases though some values may be those of a salt)
Residues, ends and D or L forms follow the SMILES beside them. *: point of attachment. Cbz = O=C(OCc1ccccc1)*

Row | melting point [°C] | SMILES
1 | 57 to 58 | Fc1ccc(Cn2ccc3cc(Br)ccc32)cc1
2 | 188 to 191 | O=CNNc1ccc(NS(=O)(=O)c2cccc([N+](=O)[O-])c2)cc1
3 | 157 to 159 | COc1ccc(N2CCN(c3c(C)c(C)c4c(c3C)C(O)(c3ccc(OC)cc3)C(C)(C)O4)CC2)cc1 (configuration not stated)
4 | > 330 | S=C1Cc2c([nH]c3ccc(Br)cc23)-c2ccccc2N1
5 | 178 to 180 | O=C(O)c1cc2cc(F)c(C(F)(F)F)cc2[nH]1
6 | 170 | COc1cc(C(C)C)c(OC(C#N)=CNc2ccccc2)cc1I
7 | 136 to 137 | Cc1cc(C)c(C2Cc3cc(NC(=O)CC(C)(C)C)cc(Cc4ccc(C(C)C)cc4)c3O2)cc1CO (configuration not stated)
8 | 185 to 189 | COC(C)c1nc2c(N)nc3ccccc3c2n1CC(C)C (configuration not stated)
9 | 48 to 49 | Clc1ccc(OCc2ccc(Cl)s2)cc1
10 | 224 to 226 | CC(C)(CO)NC1=NS(=O)(=O)c2sc(Cl)cc2N1
11 | 153 to 154 | COc1ccc(Cn2nnc(-c3ccc(C(F)(F)F)cc3F)c2N)cc1
12 | 228 to 230 | Cn1c2cc3ccccc3nc2c2c(Cl)cccc21
13 | 103 to 104 | COc1ccc(C#N)c(C=C(C)N(C)C)n1
14 | 204 | Cc1[nH]c(=S)n(Nc2cccc(Cl)c2)c1-c1cccc(Cl)c1
15 | 191 to 193 | O=C1Cc2ccccc2C12COc1cc3c(cc12)OCC(Cc1ccccc1C(F)F)O3 (configuration not stated)
16 | 135 to 136 | CC(=O)OCC1=C(C(=O)O)N2C(=O)C(NC(=O)Cc3ccc(CN=[N+]=[N-])cc3)C2SC1 (configuration not stated)
17 | 139 to 141 | CCOC(=O)c1c[nH]c2nc(N3CCC(N)C3)c(F)cc2c1=O (configuration not stated)
18 | 97 | CC1(C(=O)O)CCCCC1O (configuration not stated)
19 | 31 to 33 | Cc1ccc(C(F)(F)F)cc1[N+](=O)[O-]
20 | 115 to 121 | Cc1nc2cc(-n3cccc3)ccc2o1
21 | 322 to 324 | CC(C)c1ccccc1-n1c(=O)[nH]c2c(C(N)=O)nc(-c3cccc(O)c3)nc21
22 | 253 to 255 | NC(=O)c1ccc(N2CCN(Cc3cn4cc(Cl)ccc4n3)CC2)c(F)c1
23 | 115 | Nc1cccc(F)c1O
24 | 95 to 99 | COC(=O)CCc1cc2ccccc2n1S(=O)(=O)c1ccccc1
25 | 94 to 100 | CN1CCN(c2cc(Cl)cc3c2c(=O)n(Cc2ccncc2)c(=O)n3Cc2ccccc2)CC1

Row | melting point [°C] | SMILES
26 | 222 to 223 | NC(=O)c1sccc1SSc1ccsc1C(N)=O
27 | 149 to 151 | NC(=O)c1ccc(OCC2CO2)c(I)c1 (configuration not stated)
28 | 193 to 197 | CC#CCOc1cc2ncc(C#N)c(Nc3cc(OC)c(Cl)cc3Cl)c2cc1OC
29 | 92 to 94 | C=CCc1cc(OCC)c2c(c1OC)S(=O)(=O)N(Cc1ccccc1)C2=O
30 | 194 to 196 | CC(=O)C1=C(O)C(C(=O)C=Cc2ccc(O)cc2)C(=O)OC1=O (configuration not stated)
31 | 155 | CCCOC(=O)C=Nc1cc(Cl)ccc1C(=O)O
32 | 281 to 282 | O=C(c1ccc(-c2nc(C(=O)O)co2)cc1)c1cccnc1
33 | 73 to 75 | CCn1ccc(C(=O)c2cc(C(C)(C)C)c(O)c(C(C)(C)C)c2)c1
34 | 188 to 190 | CC(C)(C)OC(=O)Cn1c(=O)n(S(=O)(=O)c2ccc(Cl)cc2)c(=O)c2ccc(Cl)cc21
35 | 86 to 87 | COC1(c2ccc(Sc3ccc(C(=O)c4ccc(C(F)(F)F)cc4)cc3)s2)CCOCC1
36 | 170 to 172 | COc1nc(-c2ccccc2)c(-c2ccc(=O)n(C(C)C)n2)nc1C#N
37 | 141 to 142 | O=C(NCc1ccc(F)cc1)c1ccnc(N2CCN(Cc3ccccn3)C2=O)c1
38 | 191 to 212 | O=C1Nc2ccccc2NC2CCCC12 (configuration not stated)
39 | 163 | Clc1cccc(-c2onc3ccc(Br)cc23)c1
40 | 139 to 141 | COC(=O)CCC(Oc1cccc2c1cc(C)n2Cc1ccccc1)C(=O)OC (configuration not stated)
41 | 226 to 227 | CCCc1nc2c(N)nc3cccnc3c2n1CC1(O)CCC1
42 | 194 to 196 | Nc1ccc(OCCCCOc2ccc(N)cc2[N+](=O)[O-])c([N+](=O)[O-])c1
43 | 142 to 144 | CON(C)C(=O)Nc1nnc(SCc2cccnc2)s1
44 | > 300 | COc1cc2nc3n(c(=O)c2cc1OC)CS(=O)(=O)N3
45 | 140 to 142 | CC(C)c1c(O)cc(/C=C/c2ccccc2)cc1O
46 | 82.9 to 83.9 | Cc1cn(Cc2ccccc2[N+](=O)[O-])c(=O)o1
47 | 201 to 204 | Cc1ccsc1C(=O)Nc1ccc(C(=O)N2Cc3ccccc3Cc3ccccc32)cc1
48 | 207 to 210 | CC(=O)Nc1ccc2c(c1)CCC(=CN(C)C)C2=O
49 | 88 to 92 | CC1CCC(=Nc2ccccc2)N1Cc1c[nH]c2ccccc12 (configuration not stated)
50 | 70 | CCCN(Cc1ccc(C(=O)N2CCN(c3ccccc3)CC2)cc1)C1CCc2ncsc2C1 (configuration not stated)

Row | melting point [°C] | SMILES
51 | 135 to 137 | C=CCOc1cc(C(=O)OC)cc(OCC=C)c1NC(C)=O
52 | 75 to 76 | CCCC(C#N)(Cn1cncn1)c1ccc(F)cc1 (configuration not stated)
53 | 192 to 195 | O=c1c(-c2ccccc2Cl)coc2cc(OCc3nnn[nH]3)cc(Cl)c12
54 | 118 | O=c1oc(-c2ccc(OCCCC(F)(F)F)cc2)nn1CCO
55 | 53 to 55 | CCOC(=O)C1CN(C(C)=O)CCC1=O (configuration not stated)
56 | 121 to 123 | CC1(c2ccc(OCc3ccccc3)c(C3CO3)c2)OCCO1 (configuration not stated)
57 | 71 to 72 | O=C(CCc1ccc(OCc2ccccc2)cc1)C(F)(F)F
58 | 275 to 276 | CC1=C(C(=O)N2CCCCC2)C(c2ccccc2[N+](=O)[O-])C(S(C)(=O)=O)=C(C)N1 (configuration not stated)
59 | 112 to 113 | O=Cc1ccccc1C(=O)c1ccc(Cl)cc1
60 | 46 | CCCCCc1cnc(-c2ccc(N=C=S)cc2)nc1
61 | 207 to 209 | CCCOc1ccc(-c2ccc3c(c2)C=C(C(=O)Nc2ccc(CN(C)C4CCOCC4)cc2)CCN3C=O)cc1
62 | 156 to 157 | CN(C)c1cccc([N+](=O)[O-])c1CC=NNC(N)=O
63 | 122 to 125 | CCOC(=O)c1cc(=O)c(-c2ccc(OCc3ccccc3)c(OCc3ccccc3)c2)co1
64 | 144 to 145 | CN(C)S(=O)(=O)c1cc(-c2csc(=Nc3ccc(F)cc3)n2C)ccc1Cl
65 | 176 to 181 | Cn1cc(-c2ccccc2)c(=O)c(-c2cccc(S(C)(=O)=O)c2)c1
66 | 70 to 73 | CCCCCS(=O)(=O)NC(=O)OCc1ccc(OC(C)C)cc1Oc1ncc(C(F)(F)F)cc1Cl
67 | 196 | CN1CCN(C2=Nc3ccccc3N(C=O)c3ccncc32)CC1
68 | 95 to 100 | COc1ccc(C=CCN2CCc3nc(N)sc3CC2)c(OC)c1
69 | 153 to 156 | COc1c(N2CCNC(CF)C2)c(F)cc2c(=O)c(C(=O)O)cn([C@@H]3C[C@@H]3F)c12 (some centres not stated)
70 | 250 to 252 | COc1cc2c(=O)n(CCCN3CCOCC3)c3c4ccccc4[nH]c(=O)c3c2cc1OC
71 | 132 to 134 | O=C1Cc2ccc(SCc3ccccc3)cc2N1
72 | 83 to 85 | Cc1cccc(-c2ccc(NC(=O)OC(C)(C)C)c([N+](=O)[O-])c2)c1
73 | 95 to 96 | CC(C)(C)OC(=O)COc1ccc2c3c(ccc2c1)OC(=O)CC3
74 | 127 | Cc1c(CC(=O)NCCCO[N+](=O)[O-])cc(-c2ccc(S(C)(=O)=O)cc2)n1-c1ccc(F)cc1
75 | 122 to 124 | COC(=O)C(Cc1ccccc1)NC(=O)C(Cc1ccccc1)NC(=O)CNC(=O)OCc1ccccc1 (stereo not drawn) (Cbz-Gly-Phe-Phe-OMe; configuration not given here)

Row | melting point [°C] | SMILES
76 | 183 to 185 | Cc1ccc([C@H]2O[C@@H]2C(N)=O)cc1
77 | 100 | Nc1nc(N)n(CCCOc2cccc(CN3CCCCC3)c2)n1
78 | 230 to 250 | Cc1cc(O)ccc1-n1cc(C(=O)O)c(=O)cc1C=O
79 | 152 to 154 | C=CCc1cc2c(c(CC=C)c1O)CCC(=O)N2CCCNC(=O)CCl
80 | 108 to 109 | CC(=O)OCOC(c1ccccc1)n1cc(F)c(=O)[nH]c1=O (configuration not stated)
81 | 279 to 280 | CCN(c1ccc(C(=O)O)cc1)c1cc2c3c(c1)CCCC3(C)CCC2
82 | 128 to 130 | CC(C)(C)OC(=O)N(O)C(=O)[C@H](N)COCc1ccccc1
83 | 160 | CC(C)c1ccc(S(=O)(=O)Nc2cnc(Cl)cc2I)cc1
84 | 170 | COC(=O)C(C)(N)Cc1c[nH]c2ccc(Cl)cc12 (racemic)
85 | 49 to 51 | COc1ccsc1C(=O)C=C(C)C
86 | 194 to 195 | Cc1nc(CO)sc1-c1ccnc(Nc2ccc(N3CCCCC3)cc2)n1
87 | 128 to 131 | O=C(O)c1ccc(N(CCCc2ccc(Cl)cc2)CCCc2ccc(Cl)cc2)cc1
88 | 238 to 241 | COc1cc(Nc2c(C#N)cnc3cc(-c4coc(C=O)c4)c(OC)cc23)c(Cl)cc1Cl
89 | 227 | Cn1c(-c2ccc(OCC(=O)O)cc2)nc2c3ccccc3ccc21
90 | 96 to 97 | CN(C)c1ccc(/C=C/c2c(Cl)cccc2Cl)cc1
91 | 215 | N#Cc1ccc2c(c1)Sc1ccccc1O2
92 | 138 to 139 | O=C(c1ccccc1)c1ccc(-c2nc(CCl)co2)cc1
93 | 190 to 192 | CCOc1ccc(S(C)(=O)=O)cc1C(=O)Nc1c(C(N)=O)nn(CCOC)c1CC
94 | 142 to 144 | CN(C)CCC(c1ccc(NC=O)cc1)c1ncc[nH]1 (configuration not stated)
95 | 239 | Cc1cc(-c2ccc(C(=N)NO)o2)ccc1Br
96 | 120 to 121 | COc1cc(NC(=O)CCCCCN2CCN(c3ccccn3)CC2)c2nccc(C)c2c1
97 | 197 to 198 | CCP(=O)(CC)Cc1ccc(NC(=O)/C=C/c2cccc(-c3ccc(C)cc3)c2)cc1
98 | 181 | CCOC(=O)C(=O)Nc1c([N+](=O)[O-])ccc2ncccc12
99 | 220 to 223 | BrCc1c(Br)c(CBr)c(Br)c(CBr)c1Br
100 | 130 to 135 | Cc1noc(C)c1S(=O)(=O)n1cnc2cnccc21

Row | SMILES | melting point [°C]
101 | CN1CC2CCCCC2C1c1noc(=O)[nH]1 (configuration not stated) | 102 to 104
102 | CN1C[C@H](CCN2CCC(O)(c3ccc(Cl)cc3)CC2)C=C2c3cccc4[nH]cc(c34)C[C@H]21 | 154 to 157
